From patent publication US5801165A, “Antiinflammatory, immunosuppressive and antialleric 16, 17-alkylidioxy-steroids” (Rhone-Poulenc Rorer Limited, priority 1992, dated 1998)

Assays:
[1] = tested on: TNF-α release from human peripheral blood monocytes; test: Inhibition of tumour necrosis factor (TNF-α) release from human peripheral blood monocytes (lipopolysaccharide challenge); assay type: cell-based; conditions: Monocyte, 18 hours incubation with steroid, then 10 ng/ml lipopolysaccharide for 4 hours, read-out: IC50 (steroid concentration reducing TNF-α release by 50%)
Procedure: INHIBITION OF TUMOUR NECROSIS FACTOR (TNF-α) RELEASE FROM HUMAN PERIPHERAL BLOOD MONOCYTES Monocytes are obtained from blood samples taken from normal human donors. The leukocyte population is washed, applied to a discontinuous metrizamide gradient, and fractionated by centrifugation. The monocyte-enriched interface is aspirated, the cells washed and total and differential counts performed to determine the number of monocytes. Cells are allowed to adhere to 96-well plates for 1 to 2 hours, and thereafter incubated (8×10^5 monocytes/well) with the steroid for 18 hours (37° C. in 5% CO2). Cells are challenged with 10 ng/ml lipopolysaccharide for 4 hours and TNF-αis assayed by use of an enzyme-linked immunosorbent assay. TNF-α quantification is performed with goat anti-human TNF-α being used as the coating antibody, rabbit anti-human TNF-α as the second antibody, and goat anti-rabbit IgG horseradish peroxidase as the detection antibody. The IC50 is the steroid concentration reducing TNF-α release by 50%.

[2] = tested on: tyrosine aminotransferase activity, rat liver H4IIE cells; test: Induction of tyrosine aminotransferase activity in rat liver H4IIE cells; assay type: cell-based; conditions: overnight incubation, maximum of dexamethasone as reference, method defines ED50 = 50% of the maximum achievable increase, read-out: IC50 (induction of tyrosine aminotransferase activity)
Procedure: INDUCTION OF TYROSINE AMINOTRANSFERASE ACTIVITY
Rat liver H4IIE cells are cultured for 4 days until the cells are confluent. The medium is replaced by fresh medium, containing steroid under test (0-100 nM) which is added to triplicate wells. After overnight incubation as above, the medium is removed and the cells are lysed and the extract is equilibrated at 37° C. with α-ketoglutarate and pyridoxal phosphate in phosphate buffer, pH 7.3, in a final volume of 1 ml. Tyrosine aminotransferase activity is initiated by adding tyrosine and incubating at 37° C. for 10 minutes. The reaction is stopped by adding aqueous sodium hydroxide solution (10M). The ultra-violet absorbance of the para-hydroxybenzaldehyde is measured by a plate reader at 340 nm. The maximal absorbance change achieved with the standard (dexamethasone) is used as a reference. The absorbance change for each concentration of steroid under test is calculated as a fraction of the maximal absorption achievable and plotted against steroid concentration. The ED50 is determined as the concentration causing an increase in tyrosine aminotransferase activity of 50% of the maximum achievable. IC50 =0.3 nM

[3] = tested on: Sephadex-induced lung oedema in rats; test: animal or person; assay type: in vivo, male rats (Sprague-Dawley strain)
Procedure: INHIBITION OF RAT LUNG OEDEMA IN-VIVO:
Test compounds are suspended in 1% carboxymethyl-cellulose/0.2% Tween 80 at double the required strength and sonicated to form a suspension. This is administered intra-tracheally (i.t.) to male rats (Sprague-Dawley strain, 6 in each group, each weighing about 350 g) at 0 hours and 24 hours, with the first dose being co-administered with saline and the second with Sephadex G200 [cross-linked dextran] (10 mg/ml) giving a final Sephadex concentration of 5 mg/ml. I.t. dosing is carried out under halothane anaesthesia (4% in oxygen, at 4 litres/minute for 3 minutes). At 48 hours, the rats are killed, final body weight is recorded, and the lungs and thymus are removed and weighed. The doses reducing the Sephadex-induced oedema and the thymus weight by 30% (ED30) are calculated. Airway selectivity is defined as the ratio of thymus involution (ED30) and inhibition of lung oedema (ED30).

[4] = tested on: PMA-induced mouse ear oedema; test: Inhibition of PMA-induced mouse ear oedema in-vivo; design: species or system female mice (CD1 strain); conditions: epicutaneous, 18 hours before PMA 1.25 μg/ear; killed 4 hours later
Procedure: INHIBITION OF MOUSE EAR OEDEMA IN-VIVO (i) Steroids are dissolved in acetone and administered epicutaneously to the ventral and dorsal surfaces of the right ear pinna of female mice (CD1 strain, 5 in each group, each weighing about 20 g). 18 Hours later, phorbol myristate acetate (PMA, 1.25 μg/ear) in acetone is applied epicutaneously to the right ear. The mice are killed 4 hours later, and a 5 mm disc is punched out of each ear and weighed. The dose reducing PMA-induced oedema by 50% (ED50) is determined from linear regression.

[5] = tested on: antigen-induced mouse ear oedema; test: Inhibition of antigen-induced mouse ear oedema in-vivo (ovalbumin sensitised mice); conditions: topical, 18 hours before intradermal antigen challenge; killed 1 hour later
Procedure: INHIBITION OF MOUSE EAR OEDEMA IN-VIVO (ii) Ovalbumin sensitised mice are challenged with antigen injected into the right ear intradermally under 4% halothane anaesthesia (4% in oxygen, 4 litres/minute for 2 minutes) 18 hours after topical treatment with the steroids [as above in (i)]. The mice are killed 1 hour later, and a 5 mm disc is punched out of each ear, and weighed. The dose reducing the oedema by 50% (ED50) is determined as above.

For CCC[C@@H]1O[C@@H]2C[C@H]3[C@@H]4C[C@H](F)C5=CC(=O)CC[C@]5(C)[C@@]4(F)[C@@H](O)C[C@]3(C)[C@]2(SC)O1, the IC50 [1] was 0.25 nM, the ED50 (induction of tyrosine aminotransferase activity) [2] was 0.3 nM and the ED30 ([3]; Rattus norvegicus, inhaled or nasal, i.t. at 0 and 24 hours, rats killed at 48 hours, dose reducing Sephadex-induced oedema by 30%) was 3 µg/kg. For the same compound, the “Thymus involution: ED30” value ([3]; rat, in vivo, 2880 min) was 2200 µg/kg, the “Airway selectivity (ratio of thymus involution ED30 and inhibition of lung oedema ED30)” value ([3]; ratio ED30 thymus involution / ED30 lung oedema, i.t., rat) was 733 and the “Inhibition of PMA-induced mouse ear oedema: ED5O” value [4] was 0.0082 μg/ear. For the same compound, the “Inhibition of antigen-induced mouse ear oedema: ED50” value [5] was 0.026 μg/ear.
